The values below come from patent publication US7468391B2, “Methods for treating retinoid responsive disorders using selective inhibitors of CYP26A and CYP26B” (Allergan, Inc., priority 2003, dated 2008).

As a reminder, the Kd is the equilibrium constant for the complex coming apart. Low values mean a tighter complex, high ones a looser complex. For orientation: IC50 means the concentration needed to halve the response being measured.

One test deals with T1, RAR α (Homo sapiens, UniProt P10276).
T1 sequence (P10276 1-462): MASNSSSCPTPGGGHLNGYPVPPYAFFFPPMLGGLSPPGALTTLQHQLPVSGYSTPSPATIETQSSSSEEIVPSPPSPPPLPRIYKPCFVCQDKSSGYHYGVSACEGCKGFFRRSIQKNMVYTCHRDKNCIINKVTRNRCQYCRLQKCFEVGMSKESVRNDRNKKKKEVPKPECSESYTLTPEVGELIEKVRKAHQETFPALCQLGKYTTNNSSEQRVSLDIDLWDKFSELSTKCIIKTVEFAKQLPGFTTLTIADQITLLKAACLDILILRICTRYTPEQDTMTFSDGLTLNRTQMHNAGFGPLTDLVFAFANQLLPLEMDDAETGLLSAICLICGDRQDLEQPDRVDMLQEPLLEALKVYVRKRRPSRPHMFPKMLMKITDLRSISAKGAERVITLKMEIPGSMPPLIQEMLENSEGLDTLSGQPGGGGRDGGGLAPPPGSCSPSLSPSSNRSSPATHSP
The experiment in a line: RAR α Kd. Format: binding. The conditions noted are these: last item of cell EC50/(EFFICACY)/Kd.

A further test deals with T2, CYP26A (P450RAI-1) (Homo sapiens, UniProt O43174).
T2 construct: expressed in transfected cells; host or cells: HeLa
T2 sequence (O43174 1-497): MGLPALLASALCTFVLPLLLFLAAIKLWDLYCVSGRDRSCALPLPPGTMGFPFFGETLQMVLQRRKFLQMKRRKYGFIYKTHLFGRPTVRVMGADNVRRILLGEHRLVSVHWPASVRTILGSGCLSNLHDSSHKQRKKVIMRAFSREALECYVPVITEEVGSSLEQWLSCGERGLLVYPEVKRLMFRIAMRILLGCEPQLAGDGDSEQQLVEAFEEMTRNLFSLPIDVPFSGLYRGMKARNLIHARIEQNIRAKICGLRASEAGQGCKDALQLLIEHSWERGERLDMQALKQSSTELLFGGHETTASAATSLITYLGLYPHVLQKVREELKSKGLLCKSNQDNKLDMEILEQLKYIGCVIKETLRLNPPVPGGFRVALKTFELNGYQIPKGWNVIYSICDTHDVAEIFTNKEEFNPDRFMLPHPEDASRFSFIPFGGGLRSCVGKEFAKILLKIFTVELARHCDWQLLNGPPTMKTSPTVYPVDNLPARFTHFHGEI
The experiment in a line: Cell-based inhibition of RA metabolism in CYP26A stably transfected HeLa cells. The conditions noted are these: stably transfected HeLa cells, [3H]-RA, 3 hours at 37° C.; read-out: P450RAI-1 Whole cell IC50. On the procedure:
(§1) In brief, CYP26A or CYP26B can be stably transfected into HeLa cells. Exponentially growing cells are harvested by incubating in trypsin. Cells are then washed and plated in a 48-well plate at 5×10^5 cells in 0.2 ml MEM medium containing 10% FBS and 0.05 μCi [^3H]-RA in the presence or absence of increasing concentrations of the test compounds. The compounds are diluted in 100% DMSO and then added in triplicate wells at either 10, 1 or 0.1 μM final concentration. As a positive control for RA metabolism inhibition, cells are also incubated with ketoconazole at 100, 10 and 1 μM. Cells are incubated for 3 hours at 37 degrees C. The retinoids are then extracted using the procedure of Bligh et al., Canadian Journal of Biochemistry 37: 911-917 (1959), modified by using methylenechloride instead of chloroform. This publication by Bligh et al., is specifically incorporated herein by reference. The water soluble radioactivity is quantified using a β scintillation counter, and IC50 values are determined.
(§2) CYP26A and CYP26B stably transfected HeLa cells were maintained in 100 mm tissue culture dishes in MEM medium containing 10% FBS and 100 μg/ml hygromycin.
(§3) Exponentially growing cells were harvested by incubating in trypsin. Cells were then washed with 1×PBS and plated in a 48-well plate at 5×10^5 cells in 0.2 ml MEM medium containing 10% FBS and 0.05 μCi [^3H]-RA in the presence or absence of increasing concentrations of the test compounds. The compounds were diluted in 100% DMSO and then added to triplicate wells at final concentrations of 10, 1 or 0.1 μM. As a positive control for RA metabolism inhibition, cells were also incubated with ketoconazole at 100, 10 and 1 μM. Cells were incubated for 3 hours at 37° C. The retinoids were then extracted using a modified Bligh and Dyer procedure (Bligh and Dyer, supra (1959)), in which methylene-chloride, as opposed to chloroform, was used, and the aqueous soluble radioactivity quantified using a β-scintillation counter. ID50 values represent the concentration of inhibitor required to inhibit RA metabolism by 50 percent and were derived manually from log-transformed data.

The target in the next test is T3, RAR β (Homo sapiens, UniProt P10826).
T3 sequence (P10826 1-455): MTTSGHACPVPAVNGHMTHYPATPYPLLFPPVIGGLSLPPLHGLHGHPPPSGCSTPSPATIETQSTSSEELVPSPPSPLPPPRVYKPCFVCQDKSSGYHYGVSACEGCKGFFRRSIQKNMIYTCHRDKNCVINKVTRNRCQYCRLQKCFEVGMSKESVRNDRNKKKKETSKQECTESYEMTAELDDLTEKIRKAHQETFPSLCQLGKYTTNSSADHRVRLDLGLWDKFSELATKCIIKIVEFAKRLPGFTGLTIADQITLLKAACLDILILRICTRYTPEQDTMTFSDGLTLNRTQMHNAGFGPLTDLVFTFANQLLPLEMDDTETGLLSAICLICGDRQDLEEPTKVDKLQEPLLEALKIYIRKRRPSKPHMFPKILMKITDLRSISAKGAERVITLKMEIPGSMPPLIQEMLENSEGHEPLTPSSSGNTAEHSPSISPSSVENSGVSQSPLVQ
The experiment in a line: RAR β Kd. Type of test: binding. Particulars: last item of cell EC50/(EFFICACY)/Kd.

A further test addresses T4, RAR γ (Homo sapiens, UniProt P13631).
T4 sequence (P13631 1-454): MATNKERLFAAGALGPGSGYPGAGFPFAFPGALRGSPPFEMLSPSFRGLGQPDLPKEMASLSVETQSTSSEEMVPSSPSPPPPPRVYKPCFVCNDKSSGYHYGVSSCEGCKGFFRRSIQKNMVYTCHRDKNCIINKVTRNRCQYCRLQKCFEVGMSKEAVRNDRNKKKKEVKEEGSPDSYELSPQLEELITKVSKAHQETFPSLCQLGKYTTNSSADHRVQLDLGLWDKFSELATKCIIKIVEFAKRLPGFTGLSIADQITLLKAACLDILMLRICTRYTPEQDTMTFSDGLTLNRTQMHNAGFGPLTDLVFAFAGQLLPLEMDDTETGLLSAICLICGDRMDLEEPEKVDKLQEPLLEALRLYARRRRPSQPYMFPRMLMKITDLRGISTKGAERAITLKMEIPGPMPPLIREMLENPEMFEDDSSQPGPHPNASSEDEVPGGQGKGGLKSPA
The experiment in a line: RAR γ Kd. Type of test: binding. The conditions noted are these: last item of cell EC50/(EFFICACY)/Kd.

For the next test, the target named is T5, CYP26B (P450RAI-2) (Homo sapiens, UniProt Q9NR63).
T5 construct: expressed in transfected cells; host or cells: HeLa
T5 sequence (Q9NR63 1-512): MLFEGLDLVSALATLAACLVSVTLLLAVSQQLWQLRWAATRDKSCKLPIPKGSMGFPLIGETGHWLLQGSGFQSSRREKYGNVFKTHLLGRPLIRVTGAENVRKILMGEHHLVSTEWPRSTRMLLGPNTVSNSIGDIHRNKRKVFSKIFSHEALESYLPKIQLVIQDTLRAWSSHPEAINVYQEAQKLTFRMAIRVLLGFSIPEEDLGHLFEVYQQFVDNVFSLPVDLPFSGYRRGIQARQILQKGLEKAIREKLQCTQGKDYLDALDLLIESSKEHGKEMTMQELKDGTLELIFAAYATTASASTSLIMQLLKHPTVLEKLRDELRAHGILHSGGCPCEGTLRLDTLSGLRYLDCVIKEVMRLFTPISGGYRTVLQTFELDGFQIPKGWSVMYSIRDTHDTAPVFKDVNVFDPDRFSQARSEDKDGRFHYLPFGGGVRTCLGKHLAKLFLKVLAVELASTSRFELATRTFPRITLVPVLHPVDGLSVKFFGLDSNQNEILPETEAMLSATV
Kind of test: Cell-based inhibition of RA metabolism in CYP26B stably transfected HeLa cells. The conditions noted are these: stably transfected HeLa cells, [3H]-RA, 3 hours at 37° C.; read-out: P450RAI-2 Whole cell IC50. How it is done: as §1, §2, §3

For the compound `C/C(=C/C(=O)O)c1ccc(C#Cc2cccc(CN(C)C3CC3)c2)cc1` [Compound 32, 3-(4-{3-[(Cyclopropyl-methyl-amino)-methyl]-phenylethynyl}-phenyl)-but-2-enoic acid], the Kd at RAR α, at RAR β and on RAR γ was above 10 µM throughout. Further, the figures for the IC50 on CYP26A (P450RAI-1) and at CYP26B (P450RAI-2) were 0.44 µM and above 10 µM, respectively.

Turning to `CC(C)OC(=O)c1ccc(C#Cc2ccc(CC(=O)O)c(F)c2)cc1CN(C)C1CC1` [Compound 39, 4-(4-Carboxymethyl-3-fluoro-phenylethynyl)-2-[(cyclopropyl-methyl-amino)-methyl]-benzoic acid isopropyl ester], the Kd at RAR α, on RAR β and at RAR γ was above 10 µM throughout. Further, the IC50 at CYP26A (P450RAI-1) is 2.5 µM; at CYP26B (P450RAI-2), above 10 µM.

Turning to `CC(C(=O)O)c1ccc(C#Cc2cc(O)c3c(c2)C(C)(C)CC(C)(C)O3)cc1` (centres unmarked) [Compound 11, 2-[4-(8-Hydroxy-2,2,4,4-tetramethyl-chroman-6-ylethynyl)-phenyl]-propionic acid], the Kd on RAR α, at RAR β and at RAR γ was above 10 µM throughout. The IC50 at CYP26A (P450RAI-1) is 0.07 µM; on CYP26B (P450RAI-2), 3 µM.

On to `Cc1cc2c(cc1C#Cc1ccc(C(C)(C)C(=O)O)cc1)C(C)(C)CCC2N(C)C1CC1` (centres unmarked) [Compound 53, 2-{4-[5-(Cyclopropyl-methyl-amino)-3,8,8-trimethyl-5,6,7,8-tetrahydro-naphthalen-2-ylethynyl]-phenyl}-2-methyl-propionic acid], for which the Kd on RAR α is above 10 µM; at RAR β it was 3.91 µM; on RAR γ, above 10 µM. The IC50 turned out to be 0.5 µM on CYP26A (P450RAI-1) and 5 µM on CYP26B (P450RAI-2).

Take `CCc1cc(C#Cc2ccc(C(C)(C)C(=O)O)cc2)cc2c1C(N(C)C1CC1)CCC2(C)C` (centres unmarked) [Compound 54, 2-{4-[5-(Cyclopropyl-methyl-amino)-4-ethyl-8,8-dimethyl-5,6,7,8-tetrahydro-naphthalen-2-ylethynyl]-phenyl}-2-methyl-propionic acid]: the Kd at RAR α is 1.81 µM; on RAR β, 5.09 µM; on RAR γ, above 10 µM. In addition, the IC50 was 0.2 µM at CYP26A (P450RAI-1) and above 10 µM at CYP26B (P450RAI-2).

On to `COc1cc(C#Cc2ccc(CC(=O)O)cc2)cc2c1C(N(C)C1CC1)CCC2(C)C` (centres unmarked) [Compound 25, {4-[5-(Cyclopropyl-methyl-amino)-4-methoxy-8,8-dimethyl-5,6,7,8-tetrahydro-naphthalen-2-ylethynyl]-phenyl}-acetic acid], for which the Kd on RAR α is above 10 µM; at RAR β, above 10 µM; on RAR γ it was 0.317 µM. Moreover, the IC50 at CYP26A (P450RAI-1) was 0.1 µM; on CYP26B (P450RAI-2), above 10 µM.

`CN(Cc1cc(C#Cc2ccc(CC(=O)O)cc2)cc2c1OC(C)(C)CC2(C)C)C1CC1` [Compound 6, (4-{8-[(Cyclopropyl-methyl-amino)-methyl]-2,2,4,4-tetramethyl-chroman-6-ylethynyl}phenyl)-acetic acid]: the Kd at RAR α is 3.41 µM; at RAR β, above 10 µM; at RAR γ it was above 10 µM. The figures for the IC50 on CYP26A (P450RAI-1) and on CYP26B (P450RAI-2) were 0.06 µM and 4 µM, respectively.

With `CN(Cc1cc(C#Cc2ccc(CC(=O)O)c(F)c2)cc2c1OC(C)(C)CC2(C)C)C1CC1` [Compound 7, (4-{8-[(Cyclopropyl-methyl-amino)-methyl]-2,2,4,4-tetramethyl-chroman-6-ylethynyl}-2-fluoro-phenyl)-acetic acid], the Kd at RAR α, on RAR β and at RAR γ was above 10 µM throughout. For the same compound, the IC50 at CYP26A (P450RAI-1) amounted to 0.04 µM; at CYP26B (P450RAI-2), 2 µM.

Regarding `COc1cc(C#Cc2ccc(C(C)C(=O)O)cc2)cc2c1C(N(C)C1CC1)CCC2(C)C` (centres unmarked) [Compound 27, 2-{4-[5-(Cyclopropyl-methyl-amino)-4-methoxy-8,8-dimethyl-5,6,7,8-tetrahydro-naphthalen-2-ylethynyl]-phenyl}-propionic acid], the Kd on RAR α is 0.118 µM; on RAR β, 1.27 µM; at RAR γ it was above 10 µM. The figures for the IC50 at CYP26A (P450RAI-1) and on CYP26B (P450RAI-2) were 0.028 µM and above 10 µM, respectively.

Turning to `CC(C)c1cc(C#Cc2cccc(/C=C/C(=O)O)c2)cc2c1OC(C)(C)CC2(C)C` [Compound 15, 3-[3-(8-Isopropyl-2,2,4,4-tetramethyl-chroman-6-ylethynyl)-phenyl]-acrylic acid], the Kd at RAR α was 8.9 µM; on RAR β it was above 10 µM; on RAR γ, above 10 µM. Further, the IC50 at CYP26A (P450RAI-1) was 0.6 µM; at CYP26B (P450RAI-2), above 10 µM.
